Measured values from ChEMBL document CHEMBL5370665, “Insight from Linker Investigations: Discovery of a Novel Phenylbenzothiazole Necroptosis Inhibitor Targeting Receptor-Interacting Protein Kinase 1 (RIPK1) from a Phenoxybenzothiazole Compound with Dual RIPK1/3 Targeting Activity” (J Med Chem, 2023).
Activity calls are given as the source filed them. No cut-off for these calls is given here.

Key:
[1] = target: Receptor-interacting serine/threonine-protein kinase 3 (Homo sapiens, UniProt Q9Y572); assay: Binding affinity to recombinant RIPK3 (unknown origin) assessed as dissociation constant incubated for 1 hr by KINOMEscanTM assay
Receptor-interacting serine/threonine-protein kinase 3, sequence (Q9Y572 whole entry): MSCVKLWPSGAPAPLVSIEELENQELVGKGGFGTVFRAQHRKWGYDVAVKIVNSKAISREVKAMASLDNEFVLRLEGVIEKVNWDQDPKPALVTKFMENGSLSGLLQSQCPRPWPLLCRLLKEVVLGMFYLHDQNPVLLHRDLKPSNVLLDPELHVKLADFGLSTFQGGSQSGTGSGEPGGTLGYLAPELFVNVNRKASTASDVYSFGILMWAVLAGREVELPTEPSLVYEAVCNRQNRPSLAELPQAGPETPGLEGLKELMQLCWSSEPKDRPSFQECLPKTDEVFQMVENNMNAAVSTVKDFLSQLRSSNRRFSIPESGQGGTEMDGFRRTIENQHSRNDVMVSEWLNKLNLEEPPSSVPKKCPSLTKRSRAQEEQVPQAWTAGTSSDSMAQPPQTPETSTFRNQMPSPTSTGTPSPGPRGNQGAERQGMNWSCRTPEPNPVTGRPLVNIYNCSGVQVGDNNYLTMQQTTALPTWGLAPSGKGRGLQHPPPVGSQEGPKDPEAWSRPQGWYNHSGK

HT-29 [2] = assay: Anti-necroptic activity against human HT-29 cells assessed as inhibition of TCZ (human TNFalpha, cycloheximide and z-VAD-FMK) induced necroptosis at 125 to 500 nM pretreated with compound followed by TCZ stimulation for 18 hrs by CellTiter-Glo Luminescent cell viability assay; type: functional, cell-based; conditions: dose 125-500 nM
HT-29 [3] = assay: Anti-apoptotic activity against human HT-29 cells assessed as inhibition of TC (human TNFalpha, cycloheximide) induced apoptosis upto 1 uM pretreated with compound followed by TC stimulation for 36 hrs by CellTiter-Glo Luminescent cell viability assay; type: functional, cell-based
HT-29 [4] = assay: Anti-apoptotic activity against human HT-29 cells assessed as inhibition of TS (human TNFalpha, Smac mimetic) induced apoptosis upto 1 uM pretreated with compound followed […] for 24 hrs by CellTiter-Glo Luminescent cell viability assay; type: functional, cell-based
[5] = target: T1, Receptor-interacting serine/threonine-protein kinase 1 (Homo sapiens) (UniProt Q13546); assay: Inhibition of RIPK1 phosphorylation in TSZ induced human HT-29 cells at 1 uM pretreated with compound followed by TSZ stimulation for 6 hrs by Western blot analysis; type: cell-based
T1 sequence (whole entry): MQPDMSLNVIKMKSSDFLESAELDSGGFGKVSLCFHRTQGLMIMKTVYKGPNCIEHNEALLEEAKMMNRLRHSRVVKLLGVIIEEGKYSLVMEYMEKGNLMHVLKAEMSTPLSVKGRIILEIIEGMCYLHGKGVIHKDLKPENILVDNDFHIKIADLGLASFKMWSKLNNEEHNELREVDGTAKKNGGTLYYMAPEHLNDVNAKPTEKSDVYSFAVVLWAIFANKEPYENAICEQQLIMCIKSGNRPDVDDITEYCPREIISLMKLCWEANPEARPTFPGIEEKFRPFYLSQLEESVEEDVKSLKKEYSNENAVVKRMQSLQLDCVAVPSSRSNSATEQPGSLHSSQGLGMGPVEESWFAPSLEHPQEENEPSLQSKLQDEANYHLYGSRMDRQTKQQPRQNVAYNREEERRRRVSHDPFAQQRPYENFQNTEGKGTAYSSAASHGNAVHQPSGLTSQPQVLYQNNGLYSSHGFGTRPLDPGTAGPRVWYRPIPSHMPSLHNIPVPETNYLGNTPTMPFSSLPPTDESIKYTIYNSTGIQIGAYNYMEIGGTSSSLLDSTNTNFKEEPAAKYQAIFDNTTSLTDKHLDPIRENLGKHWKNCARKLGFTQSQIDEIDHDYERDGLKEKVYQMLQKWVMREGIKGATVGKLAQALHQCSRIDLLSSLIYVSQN

[6] = target: T2, Mixed lineage kinase domain-like protein (Homo sapiens) (UniProt Q8NB16); assay: Inhibition of MLKL phosphorylation in TSZ induced human HT-29 cells at 1 to 1000 nM pretreated with compound followed by TSZ stimulation for 6 hrs by Western blot analysis; type: cell-based; conditions: dose 1-1000 nM
T2 sequence (whole entry): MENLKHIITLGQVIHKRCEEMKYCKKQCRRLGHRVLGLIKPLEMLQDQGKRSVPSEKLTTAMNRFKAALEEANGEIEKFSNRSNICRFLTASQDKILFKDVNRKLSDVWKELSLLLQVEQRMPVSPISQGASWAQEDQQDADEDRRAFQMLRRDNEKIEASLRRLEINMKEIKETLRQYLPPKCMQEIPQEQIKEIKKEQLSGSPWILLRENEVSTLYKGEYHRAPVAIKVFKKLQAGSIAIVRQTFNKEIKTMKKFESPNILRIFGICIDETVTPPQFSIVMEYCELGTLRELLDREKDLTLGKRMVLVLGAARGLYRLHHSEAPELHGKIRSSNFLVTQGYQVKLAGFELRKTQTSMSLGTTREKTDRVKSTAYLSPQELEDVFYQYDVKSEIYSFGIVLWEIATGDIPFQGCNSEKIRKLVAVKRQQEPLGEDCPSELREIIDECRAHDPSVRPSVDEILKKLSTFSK

Mus musculus [7] = assay: Anti-inflammatory activity against C57BL/6J mouse model of TNFalpha-induced systemic inflammatory response syndrome (SIRS) assessed as increase in body temperature at 1.25 mg/kg,po 2 hrs prior to mTNFalpha and z-VAD-FMK stimulation and measured upto 18 hrs by electric thermometer analysis; type: functional, organism-based; conditions: time 20.0 hrs
Mus musculus [8] = assay: Anti-inflammatory activity against C57BL/6J mouse model of TNFalpha-induced systemic inflammatory response syndrome (SIRS) assessed as increase in survival rate at 1.25 mg/kg,po 2 hrs prior to mTNFalpha and z-VAD-FMK stimulation and measured upto 24 hrs; type: functional; conditions: time 26 hrs
Mus musculus [9] = assay: Anti-inflammatory activity against C57BL/6J mouse model of TNFalpha-induced systemic inflammatory response syndrome (SIRS) assessed as decrease in IL-6 level in spleen at 1.25 to 5 mg/kg,po 2 hrs prior to mTNFalpha and z-VAD-FMK stimulation for 8 hrs by ELISA; type: functional, organism-based; conditions: dose 1.25-5 mg/kg, time 10.0 hrs
Mus musculus [10] = assay: Anti-inflammatory activity against C57BL/6J mouse model of TNFalpha-induced systemic inflammatory response syndrome (SIRS) assessed as decrease in IL-6 level in lung at 1.25 to 5 mg/kg,po 2 hrs prior to mTNFalpha and z-VAD-FMK stimulation for 8 hrs by ELISA; type: functional, organism-based; conditions: dose 1.25-5 mg/kg, time 10.0 hrs
Mus musculus [11] = assay: Anti-inflammatory activity against C57BL/6J mouse model of TNFalpha-induced systemic inflammatory response syndrome (SIRS) assessed as decrease in IL-1beta level in brain at 1.25 to 5 mg/kg,po 2 hrs prior to mTNFalpha and z-VAD-FMK stimulation for 8 hrs by ELISA; type: functional, organism-based; conditions: dose 1.25-5 mg/kg, time 10.0 hrs
Mus musculus [12] = assay: Anti-inflammatory activity against C57BL/6J mouse model of TNFalpha-induced systemic inflammatory response syndrome (SIRS) assessed as decrease in IL-1beta level in kidney at 1.25 to 5 mg/kg,po 2 hrs prior to mTNFalpha and z-VAD-FMK stimulation for 8 hrs by ELISA; type: functional, organism-based; conditions: dose 1.25-5 mg/kg, time 10.0 hrs
Mus musculus [13] = assay: Anti-inflammatory activity against C57BL/6J mouse model of TNFalpha-induced systemic inflammatory response syndrome (SIRS) assessed as decrease in IL-1beta level in lung at 1.25 to 5 mg/kg,po 2 hrs prior to mTNFalpha and z-VAD-FMK stimulation for 8 hrs by ELISA; type: functional, organism-based; conditions: dose 1.25-5 mg/kg, time 10.0 hrs
Mus musculus [14] = assay: Anti-inflammatory activity against C57BL/6J mouse model of TNFalpha-induced systemic inflammatory response syndrome (SIRS) assessed as decrease in serum IL-6 level at 5 mg/kg,po 2 hrs prior to mTNFalpha and z-VAD-FMK stimulation for 8 hrs by ELISA; type: functional, organism-based; conditions: time 10.0 hrs
[15] = Metabolic stability in human liver mitochondria assessed as degradation rate at 4 micromol/L and measured upto 240 mins; type: ADME; conditions: 4 h, 4 µM, dose 4 µmol/L
[16] = Metabolic stability in mouse liver mitochondria assessed as degradation rate at 4 micromol/L and measured upto 240 mins; type: ADME; conditions: 4 h, 4 µM, dose 4 µmol/L
[17] = Acute toxicity in mouse assessed as pathological damage in kidney at 100 to 200 mg/kg,IG and measured after 14 days by H and E staining based microscopy; type: organism-based; conditions: in vivo, po, 336 h, dose 100-200 mg/kg, time 14 day

## O=C(Cc1cccc(OC(F)(F)F)c1)Nc1cc(-c2ccc3nc(NC(=O)C4CC4)sc3c2)ccc1F
[1]
  Kd: > 5 µM
HT-29 [2]
  Activity: Dose-Dependent Effect
HT-29 [3]
  Activity: inactive
HT-29 [4]
  Activity: inactive
[5]
  inhibition: Active
[6]
  inhibition: Dose-Dependent Effect
Mus musculus [7]
  Activity: Active
Mus musculus [8]
  survival at 1.25 mg/kg: 70%
Mus musculus [9]
  Activity: Dose-Dependent Effect
Mus musculus [10]
  Activity: Dose-Dependent Effect
Mus musculus [11]
  Activity: inactive
Mus musculus [12]
  Activity: inactive
Mus musculus [13]
  Activity: Active
Mus musculus [14]
  Activity: Active
[15]
  Stability: Stable
[16]
  Stability: Stable
[17]
  Activity: Non-Toxic
